For one assay, the system named is T. b. r. STIB 900. Kind of assay: STIB900 mouse model for acute African trypanosomiasis. It is filed as in vivo. The settings on record: for responders at 5 mg/kg / responders at 25 mg/kg: Mus musculus, 1440 h, read-out: Cures; for Survival / Survival (days): average days of mice survival; for Cures: number of mice that survive and are parasite free for 60 days.
Assay [1] relates to Trypanosoma brucei rhodesiense STIB900. Kind of assay: microbe, parasite or virus in culture. The settings on record: RHODESIENSE|STIB900, read-out: T. b. r. IC50.
The next assay relates to Plasmodium falciparum K1. The experiment in a line: In vitro assay with P. f. K1 strain. It is filed as cell-based. The note with it: K1, read-out: P. f. IC50.

Counter-ions that a name gives are not always drawn. Where only a bound is given, the exact number is not on record here.

`Cl.Cl.N=C(N)c1ccc(-c2cnc(-c3ccc(C(=N)N)cc3)s2)cc1` [5a, 2,5-Bis(4-amidinophenyl)thiazole dihydrochloride]: the responders at 5 mg/kg in the assay on T. b. r. STIB 900 (ip) is 25%. Also, the “Survival” value in the assay on T. b. r. STIB 900 (ip, 4 × 5 mg/kg) is recorded as greater than 44.5 days. In the assay on T. b. r. STIB 900 (ip, 4 × 5 mg/kg, 5 mg/kg), the Cures is 1 of four and one of four.
Consider `N=C(N)c1ccc(-c2cnc(-c3ccc(C(=N)N)nc3)s2)cc1` [5b, 5-(4-Amidinophenyl)-2-(2-amidinopyridin-5-yl)thiazole dihydrochloride], for which the responders at 5 mg/kg with T. b. r. STIB 900 (ip) amounted to 0%.
Take `N=C(N)c1ccc(-c2cnc(-c3ccc(C(=N)N)cn3)s2)cc1` [5c, 5-(4-Amidinophenyl)-2-(3-amidinopyridin-6-yl)thiazole dihydrochloride]: the responders at 5 mg/kg in the assay on T. b. r. STIB 900 (ip) amounted to 0%.
For the compound `Cl.Cl.N=C(N)c1ccc(-c2ncc(-c3ccc(C(=N)N)nc3)s2)cc1` [5d, 2-(4-Amidinophenyl)-5-(2-amidinopyridin-5-yl)thiazole dihydrochloride], the responders at 5 mg/kg with T. b. r. STIB 900 (ip) came to 0%. Moreover, the “Survival” value with T. b. r. STIB 900 (ip, 4 × 5 mg/kg) is recorded as greater than 36 days.
On to `Cl.Cl.N=C(N)c1ccc(-c2cnc(-c3ccc(C(=N)N)nc3)s2)cn1` [5e, 2,5-Bis(2-amidinopyridin-5-yl)thiazole dihydrochloride], for which, in the assay with T. b. r. STIB 900 (ip), the responders at 5 mg/kg came out at 0%. For the same compound, in the assay on T. b. r. STIB 900 (ip, 4 × 5 mg/kg), the “Survival” value is 50.5 days.
Turning to `N=C(N)c1ccc(-c2ncc(-c3ccc(C(=N)N)nc3)s2)nc1` [5f, 2-(3-Amidinopyridin-6-yl)-5-(2-amidinopyridin-5-yl)thiazole dihydrochloride], the responders at 5 mg/kg in the assay with T. b. r. STIB 900 (ip) came out at 0%.
For the compound `Cl.Cl.N=C(N)c1ccc(-c2cnc(-c3ccc(C(=N)N)cn3)s2)nc1` [5g, 2,5-Bis-(3-amidinopyridin-6-yl)thiazole dihydrochloride], the responders at 5 mg/kg in the assay with T. b. r. STIB 900 (ip) was 0%. Further, in the assay with T. b. r. STIB 900 (ip, 4 × 5 mg/kg), the “Survival” value is 21.5 days.
As for `N/C(=N/O)c1ccc(-c2cnc(-c3ccc(/C(N)=N\O)cc3)s2)cc1` [6a, 2,5-Bis-(4-N-hydroxyamidinophenyl)thiazole dihydrochloride], the responders at 25 mg/kg with T. b. r. STIB 900 (po) was 0%.
As for `Cl.Cl.N/C(=N\O)c1ccc(-c2cnc(-c3ccc(/C(N)=N/O)nc3)s2)cc1` [6b, 5-(4-N-hydroxyamidinophenyl)-2(2-N-hydroxyamidinopyridin-5-yl)thiazole dihydrochloride], the responders at 25 mg/kg in the assay with T. b. r. STIB 900 (po) was 0%. For the same compound, in the assay with T. b. r. STIB 900 (po, 4 × 25 mg/kg), the “Survival” value is given as 37.5 days.
The corresponding values for `Cl.Cl.N/C(=N\O)c1ccc(-c2cnc(-c3ccc(/C(N)=N\O)cn3)s2)cc1` [6c, 5-(4-N-hydroxyamidinophenyl)-2-(3-N-hydroxyamidinopyridin-6-yl)thiazole dihydrochloride] are 0% and 24 days.
The corresponding values for `Cl.Cl.N/C(=N\O)c1ccc(-c2ncc(-c3ccc(/C(N)=N\O)nc3)s2)cc1` [6d, 2-(4-N-hydroxyamidinophenyl)-5-(2-N-hydroxyamidinopyridin-5yl)thiazole dihydrochloride] are 0% and 36.75 days.
The corresponding values for `Cl.Cl.N/C(=N\O)c1ccc(-c2cnc(-c3ccc(/C(N)=N\O)nc3)s2)cn1` [6e, 2,5-Bis-(2-N-hydroxyamidinopyridin-5-yl)thiazole dihydrochloride] are 25% and greater than 37.5 days.
Turning to `Cl.Cl.N/C(=N\O)c1ccc(-c2cnc(-c3ccc(/C(N)=N\O)cn3)s2)nc1` [6g, 2,5-Bis(3-N-hydroxyamidinopyridin-6-yl)thiazole dihydrochloride], the responders at 25 mg/kg in the assay with T. b. r. STIB 900 (po) amounted to 0%. Further, in the assay with T. b. r. STIB 900 (po, 4 × 25 mg/kg), the “Survival” value stood at 9 days.
The corresponding values for `CO/N=C(/N)c1ccc(-c2cnc(-c3ccc(/C(N)=N\OC)cc3)s2)cc1.Cl.Cl` [7a, 2,5-Bis-(4-N-methoxyamidinophenyl)thiazole dihydrochloride] are 0% and 41 days.
The matching figures for `CO/N=C(\N)c1ccc(-c2cnc(-c3ccc(/C(N)=N/OC)nc3)s2)cc1.Cl` [7b, 5-(4-N-methoxyamidinophenyl)-2-(2-N-methoxyamidinopyridin-5-yl)thiazole dihydrochlodide]: 0% and 42.75 days.
The matching figures for `CO/N=C(\N)c1ccc(-c2cnc(-c3ccc(/C(N)=N\OC)cn3)s2)cc1.Cl.Cl` [7c, 5-(4-N-methoxyamidinophenyl)-2-(3-N-methoxyamidinopyridin-6-yl)thiazole dihydrochloride]: 0% and 35 days.
As for `CO/N=C(\N)c1ccc(-c2cnc(-c3ccc(/C(N)=N\OC)nc3)s2)cn1.Cl.Cl` [7e, 2,5-Bis(2-N-methoxyamidinopyridin-5-yl)thiazole dihydrochloride], in the assay with T. b. r. STIB 900 (po), the responders at 25 mg/kg was 25%. Moreover, in the assay on T. b. r. STIB 900 (po, 4 × 25 mg/kg), the “Survival” value is given as greater than 47.25 days.
For `CO/N=C(\N)c1ccc(-c2cnc(-c3ccc(/C(N)=N\OC)cn3)s2)nc1` [7g, 2,5-Bis(3-N-methoxyamidinopyridin-6-yl)thiazole dihydrochloride], the responders at 25 mg/kg in the assay on T. b. r. STIB 900 (po) turned out to be 0%.
Consider `N=C(N)c1ccc(OCCCCCOc2ccc(C(=N)N)cc2)cc1` [I, pentamidine, reference compound], for which, in the assay with T. b. r. STIB 900 (ip), the responders at 5 mg/kg is 50%.
The term IC50 denotes the point on the concentration scale where inhibition reaches its midpoint. For the compound `N=C(N)c1ccc(-c2ccc(-c3ccc(C(=N)N)cc3)o2)cc1` [IIa, furamidine], the “Survival” value in the assay on T. b. r. STIB 900 (ip, 4 × 5 mg/kg) is listed as greater than 46 days. For the same compound, in assay [1], the IC50 worked out at 3.2 nM.
As for `CONC(=N)c1ccc(-c2ccc(-c3ccc(C(=N)NOC)cc3)o2)cc1` [IIb, Pafuramidine, reference compound], the Cures with T. b. r. STIB 900 (po, 4 × 5 mg/kg) is on record as 0/4; with T. b. r. STIB 900 (po, 4 × 25 mg/kg), 4/4. The “Survival” value in the assay on T. b. r. STIB 900 (po, 4 × 25 mg/kg) is listed as greater than 60 days.
On to `N=C(N)c1ccc(-c2ccc(-c3ccc(C(=N)N)cn3)o2)cc1` [IIc, azafuramidine, reference compound], for which the IC50 in the assay with Plasmodium falciparum K1 came out at 6.5 nM; in assay [1], 7 nM. The responders at 5 mg/kg in the assay with T. b. r. STIB 900 (ip) is 75%. In addition, the “Survival” value in the assay on T. b. r. STIB 900 (ip, 4 × 5 mg/kg) was greater than 54.5 days.
Turning to `CO/N=C(\N)c1ccc(-c2ccc(-c3ccc(/C(N)=N/OC)cn3)o2)cc1` [IId, reference compound], in the assay with T. b. r. STIB 900 (po, 4 × 5 mg/kg), the “Survival (days)” value was >60 >60 days and the Cures is given as 4/4 4/4. Moreover, in the assay with T. b. r. STIB 900 (po, 4 × 25 mg/kg), the “Survival (days)” value is given as >60 >60 days and the Cures is reported as 4/4 4/4.
Take `N=C(N)c1ccc(-c2ccc(-c3ccc(C(=N)N)cc3)s2)cc1` [IIe, reference compound]: the responders at 5 mg/kg in the assay with T. b. r. STIB 900 (ip) is 50%. Also, in the assay with T. b. r. STIB 900 (ip, 4 × 5 mg/kg), the “Survival” value is reported as greater than 48.75 days.

Values taken from paper PMC2892117 (Bioorganic & medicinal chemistry, 2010).
